Test results taken from patent US6673802B2, “Compounds specific to adenosine A3 receptor and uses thereof” (OSI Pharmaceuticals, Inc., priority 2000, dated 2004).

Key:
[1] = target: T1, human A2a receptor subtype (Homo sapiens, UniProt P29274); assay: Adenosine 2a receptor subtype competition radioligand binding ([3H]CGS-21680, HEK293 membranes); details: Table 13; probably % activity @ 10 μM (footnote 8)
T1 construct: purchased Receptor Biology (Beltsville, Md.) RB-HA2a

[2] = target: A1 adenosine receptor (Homo sapiens, UniProt P30542); details: cited from earlier work
A1 adenosine receptor, sequence (P30542 whole entry): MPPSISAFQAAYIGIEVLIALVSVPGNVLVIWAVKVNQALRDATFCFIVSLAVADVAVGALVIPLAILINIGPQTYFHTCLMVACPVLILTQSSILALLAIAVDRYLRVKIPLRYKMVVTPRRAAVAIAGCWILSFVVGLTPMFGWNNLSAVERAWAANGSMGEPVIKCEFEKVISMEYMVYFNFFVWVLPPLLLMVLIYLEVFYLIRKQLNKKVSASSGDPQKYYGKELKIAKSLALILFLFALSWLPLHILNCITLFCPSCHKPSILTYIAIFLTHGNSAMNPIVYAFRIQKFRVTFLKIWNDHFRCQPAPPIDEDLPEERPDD

T1 sequence (P29274 whole entry): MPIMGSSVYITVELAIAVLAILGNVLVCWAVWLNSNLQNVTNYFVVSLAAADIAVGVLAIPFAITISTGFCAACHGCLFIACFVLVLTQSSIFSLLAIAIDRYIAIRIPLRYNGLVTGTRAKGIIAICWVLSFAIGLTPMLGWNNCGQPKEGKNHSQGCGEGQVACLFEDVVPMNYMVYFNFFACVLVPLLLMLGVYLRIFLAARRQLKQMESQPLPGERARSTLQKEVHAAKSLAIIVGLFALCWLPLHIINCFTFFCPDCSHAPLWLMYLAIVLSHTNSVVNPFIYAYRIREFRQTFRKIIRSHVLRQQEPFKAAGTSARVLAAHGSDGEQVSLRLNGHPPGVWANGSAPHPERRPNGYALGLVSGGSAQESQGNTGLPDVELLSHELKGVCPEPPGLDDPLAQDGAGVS

| melting point [°C] | Structure (SMILES) | other results |
| --- | --- | --- |
| 234 to 235 | c1ccc(-c2nc(NCCc3cnc[nH]3)c3cc[nH]c3n2)cc1 [Compound 1720, [2-(3H-Imidazol-4-yl)-ethyl]-(2-phenyl-7H-pyrrolo[2,3-d]pyrimidin-4-yl)-amine] |  |
| 196 to 197 | CC(=O)NCCNc1nc(-c2ccccc2)nc2[nH]c(COc3ccccc3)cc12 [Example 17, 4-(2-acetylaminoethyl)amino-6-phenoxymethyl-2-phenyl-7H-pyrrolo[2,3d]pyrimidine] |  |
|  | CNC(=O)NCCCNc1nc(-c2ccccc2)nc2[nH]c(C)c(C)c12 [Compound 1310] | A2a, value printed as % [1]: 76% |
|  | CC(Cc1ccccc1)Nc1ncnc2c1ncn2[C@@H]1O[C@H](CO)[C@@H](O)[C@H]1O (single isomer, unassigned; (-)) [PIA, (−)-N6-(2-phenylisopropyl)-adenosine] | reported affinity [2]: approximately 50 nM |
